Data on 5 molecules can be found in PMC7192969 (Journal of Pharmaceutical Analysis, 2019).

A short description of data set [1]: Pharmacokinetics of aconitine in plasma after oral administration. The data set is classed as in vivo. As to conditions: male, Sprague-Dawley, rat, 1 mg/kg; for half-life: t1/2z.
Another data set relates to SD rats. Put plainly: Freund's adjuvant induced hind paw edema, anti-inflammatory effect. The data set is classed as in vivo, rat.
[2] abbreviates: Group A: aconitine at 1 mg/kg oral, alone.
[3] abbreviates: Group B: aconitine at 1 mg/kg + liquiritin at 10 mg/kg oral.
Setting [4] is: Group D: aconitine at 1 mg/kg + glycyrrhizic acid at 10 mg/kg oral.
The mark [5] stands for this setting: Group E: aconitine at 1 mg/kg + glycyrrhetinic acid at 10 mg/kg oral.
Where [6] appears, read: 0 h, 10 mg/kg oral in combination with aconitine 1 mg/kg.
The mark [7] stands for this setting: 1 h, 10 mg/kg oral in combination with aconitine 1 mg/kg.
The mark [8] stands for this setting: 2 h, 10 mg/kg oral in combination with aconitine 1 mg/kg.
Where [9] appears, read: 4 h, 10 mg/kg oral in combination with aconitine 1 mg/kg.
[10] abbreviates: 6 h, 10 mg/kg oral in combination with aconitine 1 mg/kg.

Structures are written as SMILES.

As a reminder, the AUC(0-t) is exposure summed from dosing to a finite time, without extrapolation to infinity. Usually AUC(0-inf) stands for the area under the concentration-time curve extrapolated to infinity. What is called Cmax is the highest concentration seen after dosing. As usually defined, the Tmax is the time at which the peak concentration occurs. Usually half-life stands for the time in which the quantity being followed falls by half. `CCN1C[C@]2(COC)[C@H](O)C[C@H](OC)[C@@]34[C@@H]5C[C@@]6(O)[C@H](OC(=O)c7ccccc7)[C@@H]5[C@@](OC(C)=O)([C@@H]([C@H](OC)[C@H]23)[C@@H]14)[C@@H](O)[C@@H]6OC` [Aconitine, aconitine]: the AUC(0-t) in data set [1] came out at 33.7 ± 7.47 ng·h/mL; in data set [1] (setting [2]) it was 25.8 ± 4.36 ng·h/mL; in data set [1] (setting [3]), 30 ± 6.63 ng·h/mL; in data set [1] (setting [4]), 29.1 ± 4.44 ng·h/mL; in data set [1] (setting [5]) it was 19.9 ± 3.61 ng·h/mL. The AUC(0-inf) in data set [1] amounted to 34.5 ± 7.07 ng·h/mL; in data set [1] (setting [2]) it was 29.1 ± 6.15 ng·h/mL; in data set [1] (setting [3]), 31.9 ± 5.6 ng·h/mL; in data set [1] (setting [4]) it was 33.6 ± 6.93 ng·h/mL; in data set [1] (setting [5]), 20.7 ± 3.55 ng·h/mL. Also, the Cmax was 9.19 ± 1.38 ng/mL in data set [1]; 4.8 ± 0.966 ng/mL in data set [1] (setting [2]); 5.77 ± 0.831 ng/mL in data set [1] (setting [3]); 5.73 ± 0.7 ng/mL in data set [1] (setting [4]); 5.88 ± 0.73 ng/mL in data set [1] (setting [5]). For the same molecule, the Tmax worked out at 0.667 ± 0.258 h in data set [1]; 1.08 ± 0.376 h in data set [1] (setting [2]); 1.67 ± 0.408 h in data set [1] (setting [3]); 1.42 ± 0.585 h in data set [1] (setting [4]); 0.833 ± 0.258 h in data set [1] (setting [5]). Further, the half-life in data set [1] was 2.19 ± 0.249 h; in data set [1] (setting [2]) it was 3.87 ± 1.02 h; in data set [1] (setting [3]), 3.26 ± 1.48 h; in data set [1] (setting [4]) it was 3.48 ± 1.06 h; in data set [1] (setting [5]), 1.9 ± 0.423 h. For the same molecule, the hind paw volume in the data set on SD rats (0 h, 1 mg/kg oral, alone) is given as 1.70 ± 0.06 mL; with SD rats (1 h, 1 mg/kg oral, alone), 1.87 ± 0.10∗ mL; in the data set with SD rats (2 h, 1 mg/kg oral, alone) it was 1.99 ± 0.15 mL; with SD rats (4 h, 1 mg/kg oral, alone), 2.02 ± 0.12∗ mL; in the data set on SD rats (6 h, 1 mg/kg oral, alone), 2.19 ± 0.05∗ mL.

Turning to `CC1(C)[C@@H](O)CC[C@]2(C)[C@H]3C(=O)C=C4[C@@H]5C[C@@](C)(C(=O)O)CC[C@]5(C)CC[C@@]4(C)[C@]3(C)CC[C@@H]12` [Glycyrrhetinic acid, glycyrrhetinic acid], the hind paw volume in the data set on SD rats (setting [6]) was 1.71 ± 0.05 mL; in the data set with SD rats (setting [7]), 1.80 ± 0.02∗# mL; in the data set on SD rats (setting [8]), 1.79 ± 0.03∗# mL; with SD rats (setting [9]) it was 1.91 ± 0.09∗ mL; with SD rats (setting [10]), 2.10 ± 0.06∗# mL.

Regarding `CC1(C)[C@@H](O[C@H]2O[C@H](C(=O)O)[C@@H](O)[C@H](O)[C@H]2O[C@@H]2O[C@H](C(=O)O)[C@@H](O)[C@H](O)[C@H]2O)CC[C@]2(C)[C@H]3C(=O)C=C4[C@@H]5C[C@@](C)(C(=O)O)CC[C@]5(C)CC[C@@]4(C)[C@]3(C)CC[C@@H]12` [Glycyrrhizic acid, glycyrrhizic acid], the hind paw volume in the data set on SD rats (setting [6]) is recorded as 1.72 ± 0.03 mL; in the data set on SD rats (setting [7]), 1.92 ± 0.05∗ mL; in the data set with SD rats (setting [8]), 1.96 ± 0.09∗ mL; in the data set with SD rats (setting [9]), 1.99 ± 0.11∗ mL; in the data set on SD rats (setting [10]), 2.14 ± 0.08∗ mL.

With `COc1ccc2c(c1)c(CC(=O)O)c(C)n2C(=O)c1ccc(Cl)cc1` [Indomethacin, reference compound], the hind paw volume is on record as 1.67 ± 0.09 mL with SD rats (0 h, 1 mg/kg oral, alone); 2.00 ± 0.11 mL in the data set on SD rats (1 h, 1 mg/kg oral, alone); 2.04 ± 0.15 mL with SD rats (2 h, 1 mg/kg oral, alone); 2.15 ± 0.10∗ mL in the data set on SD rats (4 h, 1 mg/kg oral, alone); 2.19 ± 0.18∗ mL with SD rats (6 h, 1 mg/kg oral, alone).

In the case of `O=C1C[C@@H](c2ccc(O[C@@H]3O[C@H](CO)[C@@H](O)[C@H](O)[C@H]3O)cc2)Oc2cc(O)ccc21` [Liquiritin, liquiritin], the hind paw volume in the data set on SD rats (setting [6]) is 1.70 ± 0.05 mL; with SD rats (setting [7]), 1.78 ± 0.12∗ mL; with SD rats (setting [8]), 1.81 ± 0.10∗# mL; in the data set on SD rats (setting [9]), 1.83 ± 0.09∗# mL; with SD rats (setting [10]) it was 1.96 ± 0.14∗# mL.
